What was measured:
Assay type in all cases: cell-based
[1] = tested on: Human breast cancer cell line T-47D; experiment: Caspase cascade activation (Ac-DEVD-R110 fluorogenic substrate) in T-47D cells; settings: T47D, T-47D, incubated 24 or 48 h (Table I), 0.016 to 10 μM final, read-out: Caspase Activation Potency EC50 T-47D
Description: (§1) Human breast cancer cell line T-47D, human hepatocellular carcinoma cell line SNU398 and human colon carcinoma cell line HCT116 were grown according to media component mixtures designated by American Type Culture Collection+10% FCS (Invitrogen Corporation), in a 5% CO2-95% humidity incubator at 37° C. T-47D and H1299 cells were maintained at a cell density between 50 and 80% confluency at a cell density of 0.1 to 0.6×10^6 cells/mL. Cells were harvested at 600×g and resuspended at 0.65×10^6 cells/mL into appropriate media+10% FCS. An aliquot of 22.5 μL of cells was added to a well of a 384-well microtiter plate containing 2.5 μL of a 10% DMSO in RPMI-1640 media solution containing 0.16 to 100 μM of 5,7-dihydro-N-(3,5-dimethoxyphenyl)-2-(methylthio)furo[3,4-d]pyrimidin-4-amine or other test compound (0.016 to 10 μM final). An aliquot of 22.5 μL of cells was added to a well of a 384-well microtiter plate containing 2.5 μL of a 10% DMSO in RPMI-1640 media solution without test compound as the control sample. The samples were mixed by agitation and then incubated at 37° C. for 24 or 48 h in a 5% CO2-95% humidity incubator. After incubation, the samples were removed from the incubator and 25 μL of a solution containing 14 μM of N-(Ac-DEVD)-N′-ethoxycarbonyl-R110 (SEQ ID No.:1) fluorogenic substrate (Cytovia, Inc.; WO99/18856), 20% sucrose (Sigma), 20 mM DTT (Sigma), 200 mM NaCl (Sigma), 40 mM Na PIPES buffer pH 7.2 (Sigma), and 500 µg/mL lysolecithin (Calbiochem) was added. The samples were mixed by agitation and incubated at room temperature. Using a fluorescent plate reader (Model SPECTRAfluor Plus, Tecan), an initial reading (T=0) was made approximately 1-2 min after addition of the substrate solution, employing excitation at 485 nm and emission at 530 nm, to determine the background fluorescence of the control sample. After the 3 h incubation, the samples were read for fluorescence as above (T=3 h).
(§2) The Relative Fluorescence Unit values (RFU) were used to calculate the sample readings as follows: RFU(T=3h)−Control RFU(T=0)=Net RFU(T=3h)
(§3) The activity of caspase cascade activation was determined by the ratio of the net RFU value for 5,7-dihydro-N-(3,5-dimethoxyphenyl)-2-(methylthio)furo[3,4-d]pyrimidin-4-amino or other test compound to that of control samples. The EC50 (nM) was determined by a sigmoidal dose-response calculation (Prism 3.0, GraphPad Software Inc.).

[2] = tested on: human hepatocellular carcinoma cell line SNU398; experiment: Caspase cascade activation (Ac-DEVD-R110 fluorogenic substrate) in SNU398 cells; settings: SNU-398, incubated 24 or 48 h (Table I), 0.016 to 10 μM final, read-out: Caspase Activation Potency EC50 SNU398
Description: as §1, §2, §3

[3] = tested on: human colon carcinoma cell line HCT116; experiment: Caspase cascade activation (Ac-DEVD-R110 fluorogenic substrate) in HCT116 cells; settings: HCT-116, incubated 24 or 48 h (Table I), 0.016 to 10 μM final, read-out: Caspase Activation Potency EC50 HCT116
Description: as §1, §2, §3

EC50 [1] [µM] | EC50 [2] [µM] | EC50 [3] [µM] | SMILES
> 10 | > 10 | > 10 | Cc1cc(Nc2nc(N3CCN(C)CC3)nc3c2CNC3)[nH]n1 [Example 28, [2-(4-Methyl-piperazin-1-yl)-6,7-dihydro-5H-pyrrolo[3,4-d]pyrimidin-4-yl]-(5-methyl-2H-pyrazol-3-yl)-amine]
> 10 | > 10 | > 10 | CSc1nc2c(c(Nc3cccc(Br)c3)n1)CCC2 [Example 19, N-(3-Bromophenyl)-6,7-dihydro-2-(methylthio)-5H-cyclopenta[d]pyrimidin-4-amine]
> 10 | 5 | > 10 | COc1ccc(N(C)c2nc(Cl)nc3c2CN(C(=O)OCC2c4ccccc4-c4ccccc42)C3)cc1 [Example 31, (9H-Fluoren-9-yl)methyl 4-(N-(4-methoxyphenyl)-N-methylamino)-2-chloro-5H-pyrrolo[3,4-d]pyrimidine-6(7H)-carboxylate]
3.19 | 2.56 | 5.15 | COc1ccc(N(C)c2nc(SC)nc3c2COC3)cc1 [Example 8, 5,7-Dihydro-N-(4-methoxyphenyl)-N-methyl-2-(methylthio)furo[3,4-d]pyrimidin-4-amine]
> 10 | 2.69 | ≥ 10.6 | CSc1nc2c(c(Nc3cc(C)n[nH]3)n1)CCC2 [Example 20, 6,7-Dihydro-N-(5-methyl-1H-pyrazol-3-yl)-2-(methylthio)-5H-cyclopenta[d]pyrimidin-4-amine]
> 10 | > 10 | > 10 | Cc1cc(Nc2nc(S(C)(=O)=O)nc3c2COC3)[nH]n1 [Example 13, 5,7-Dihydro-N-(3-methyl-1H-pyrazol-5-yl)-2-(methylsulfonyl)furo[3,4-d]pyrimidin-4-amine]
1.57 | > 10 | > 10 | COc1cc(Nc2nc(Cl)nc3c2CN(C(=O)OCC2c4ccccc4-c4ccccc42)C3)cc(N(C)C)c1 [Example 30, (9H-Fluoren-9-yl)methyl 4-(3-(dimethylamino)-5-methoxyphenylamino)-2-chloro-5H-pyrrolo[3,4-d]pyrimidine-6(7H)-carboxylate]
> 10 | > 10 | > 10 | Cc1cc(Nc2nc(N3CCN(C)CC3)nc3c2COC3)[nH]n1 [Example 32, 5,7-Dihydro-N-(3-methyl-1H-pyrazol-5-yl)-2-(4-methylpiperazin-1-yl)furo[3,4-d]pyrimidin-4-amine]
> 10 | > 10 | > 10 | CSc1nc2c(c(Nc3cc(C)n[nH]3)n1)COC2 [Example 12, 5,7-Dihydro-N-(3-methyl-1H-pyrazol-5-yl)-2-(methylthio)furo[3,4-d]pyrimidin-4-amine]
> 10 | > 10 | > 10 | Cc1cc(Nc2nc(Cl)nc3c2CN(C(=O)OCC2c4ccccc4-c4ccccc42)C3)[nH]n1 [Example 17, (9H-Fluoren-9-yl)methyl 4-(3-methyl-1H-pyrazol-5-ylamino)-2-chloro-5H-pyrrolo[3,4-d]pyrimidine-6(7H)-carboxylate]
14.1 | 9.07 | ≥ 14.2 | CS(=O)(=O)c1nc2c(c(Sc3ccc(NC(=O)C4CC4)cc3)n1)COC2 [Example 15, N-(4-(5,7-Dihydro-2-(methylsulfonyl)furo[3,4-d]pyrimidin-4-ylthio)phenyl)cyclopropanecarboxamide]
> 10 | > 10 | > 10 | CSc1nc2c(c(Nc3ccc(NC(=O)c4ccccc4)cc3)n1)CCC2 [Example 22, N-(4-(6,7-Dihydro-2-(methylthio)-5H-cyclopenta[d]pyrimidin-4-ylamino)phenyl)benzamide]
2.74 | 1.36 | 2.42 | Cc1cc(Nc2nc(Sc3ccc(NC(=O)C4CC4)cc3)nc3c2COC3)[nH]n1 [Example 14, N-(4-(4-(3-Methyl-1H-pyrazol-5-ylamino)-5,7-dihydrofuro[3,4-d]pyrimidin-2-ylthio)phenyl)cyclopropanecarboxamide]
1.29 | > 10 | > 10 | COc1cc(Nc2nc(C)nc3c2COC3)cc(OC)c1 [Example 11, 5,7-Dihydro-N-(3,5-dimethoxyphenyl)-2-methylfuro[3,4-d]pyrimidin-4-amine]
1.19 | > 10 | > 10 | COc1cc(Nc2ncnc3c2COC3)cc(OC)c1 [Example 9, 5,7-Dihydro-N-(3,5-dimethoxyphenyl)-furo[3,4-d]pyrimidin-4-amine]
> 10 | > 10 | > 10 | O=C(Nc1ccc(Sc2nc(Cl)nc3c2CN(C(=O)OCC2c4ccccc4-c4ccccc42)C3)cc1)C1CC1 [Example 29, (9H-Fluoren-9-yl)methyl 2-chloro-4-((4-(cyclopropanecarboxamido)phenyl)sulfanyl)-5H-pyrrolo[3,4-d]pyrimidine-6(7H)-carboxylate]
> 10 | > 10 | > 10 | Cc1nc2c(c(Nc3cccc(Br)c3)n1)COC2 [Example 10, 5,7-Dihydro-N-(3-bromophenyl)-2-methylfuro[3,4-d]pyrimidin-4-amine]
> 10 | > 10 | > 10 | Cc1cc(Nc2nc3c(c(Sc4ccc(NC(=O)C5CC5)cc4)n2)COC3)[nH]n1 [Example 16, N-(4-(2-(3-Methyl-1H-pyrazol-5-ylamino)-5,7-dihydrofuro[3,4-d]pyrimidin-4-ylthio)phenyl)cyclopropanecarboxamide]
> 10 | > 10 | > 10 | O=C(Nc1ccc(Nc2ncnc3c2CCC3)cc1)c1ccccc1 [Example 26, N-(4-(6,7-Dihydro-5H-cyclopenta[d]pyrimidin-4-ylamino)phenyl)benzamide]
0.063 | 2.56 | > 10 | COc1cc(Nc2nc(SC)nc3c2CCC3)cc(OC)c1 [Example 21, 6,7-Dihydro-N-(3,5-dimethoxyphenyl)-2-(methylthio)-5H-cyclopenta[d]pyrimidin-4-amine]

From patent US20080113946A1, “N-aryl-5,7-dihydrofuro[3,4-d]pyrimidin-4-amines and analogs as activators of caspases and inducers of apoptosis and the use thereof” (Cyntovia, Inc., priority 2006, published 2008)
